# Residue numbers refer to the chain shown, from its start. Like-named read-outs stand apart in the source and are kept apart here. Non-standard residues stand in square brackets, D forms with d. Residues, ends and D or L forms follow the SMILES beside them. No end group written: not given here.
# T1: MAS (Homo sapiens, UniProt P04201)
# T1 construct: expressed in transfected cells
# T1 sequence (P04201 1-325): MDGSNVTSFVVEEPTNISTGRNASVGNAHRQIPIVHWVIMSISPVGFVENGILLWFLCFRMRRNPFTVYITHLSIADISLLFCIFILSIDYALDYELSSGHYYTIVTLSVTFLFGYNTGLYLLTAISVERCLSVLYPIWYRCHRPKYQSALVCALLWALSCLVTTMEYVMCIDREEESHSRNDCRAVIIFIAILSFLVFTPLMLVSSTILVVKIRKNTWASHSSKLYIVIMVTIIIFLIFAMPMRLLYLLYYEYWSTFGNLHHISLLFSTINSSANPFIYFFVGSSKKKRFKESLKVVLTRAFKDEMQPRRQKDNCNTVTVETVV
# T2: untagged WT MAS (Homo sapiens, UniProt P04201)
# T2 construct: expressed in transfected cells
# T2 sequence (P04201 1-325): T1 sequence (P04201 1-325)
# T3: MAS I191A mutant (Homo sapiens, UniProt P04201, I191A)
# T3 construct: expressed in transfected cells
# T3 sequence (P04201 1-325 I191A): T1 sequence (P04201 1-325) with I191A
# T4: MAS F112A mutant (Homo sapiens, UniProt P04201, F112A)
# T4 construct: expressed in transfected cells
# T4 sequence (P04201 1-325 F112A): T1 sequence (P04201 1-325) with F112A
# T5: MAS M244A mutant (Homo sapiens, UniProt P04201, M244A)
# T5 construct: expressed in transfected cells
# T5 sequence (P04201 1-325 M244A): T1 sequence (P04201 1-325) with M244A
# T6: MAS T270A mutant (Homo sapiens, UniProt P04201, T270A)
# T6 construct: expressed in transfected cells
# T6 sequence (P04201 1-325 T270A): T1 sequence (P04201 1-325) with T270A
# T7: myc-tagged wild-type human MAS receptor (human) (UniProt P04201)
# T7 sequence: T1 sequence (P04201 1-325)
# B1: [^DY^1] [^NMeF^3]-NPFF (peptide)
# peptide: YLFQPQRF
# HELM: PEPTIDE1{[dY].L.[meF].Q.P.Q.R.F.[am]}$$$$V2.0; N-terminus assumed
# SMILES: CC(C)C[C@H](NC(=O)[C@H](N)Cc1ccc(O)cc1)C(=O)N(C)[C@@H](Cc1ccccc1)C(=O)N[C@@H](CCC(N)=O)C(=O)N1CCC[C@H]1C(=O)N[C@@H](CCC(N)=O)C(=O)N[C@@H](CCCNC(=N)N)C(=O)N[C@@H](Cc1ccccc1)C(N)=O
# B2: [Sar^1]-Ang(1–7)-amide (peptide)
# peptide: GRVYIHP
# HELM: PEPTIDE1{[Sar].R.V.Y.I.H.P.[am]}$$$$V2.0; N-terminus assumed
# SMILES: CC[C@H](C)[C@H](NC(=O)[C@H](Cc1ccc(O)cc1)NC(=O)[C@@H](NC(=O)[C@H](CCCNC(=N)N)NC(=O)CNC)C(C)C)C(=O)N[C@@H](Cc1c[nH]cn1)C(=O)N1CCC[C@H]1C(N)=O
# Key:
# MAS [1] = molecular target: T1, MAS; assay: FLIPR calcium assay, induced myc-tagged WT MAS HEK293 stable cell line; type: cell-based; conditions: for EC50, Calcium assay / EC50: induced cells
# Method: The assay was performed using FLIPR Calcium 5 assay kit (Molecular Devices, Sunnyvale, CA). For calcium measurements, cells at a density of 125,000 cells/well in 100 µl medium were seeded onto a 96-well clear bottom black cell culture plate that was pre-coated with poly-L-lysine. In the calcium assays the cell density of 125,000 cells/well was consistently maintained to minimize variability between independent experiments. The cells were seeded in induction media to induce MAS expression or in complete media for negative controls. The plate was maintained in a cell culture incubator for 26–28 h. The cells were then serum starved for 2 h by replacing the medium with 100 µl of serum free DMEM. In the case of pre-treatment with pan-inhibitor of G protein signaling, BIM-46187, the cells were initially serum starved for 1 h by replacing the medium with 50 µl of serum free DMEM. After 1 h, 50 µl of BIM-46187 was added to the cells to a final concentration of 25 µM and treated for another 1 h. Following serum starvation, 100 µl of calcium sensitive dye along with 2x (2.5 mM final concentration) probenecid (Life Technologies, Grand Island, NY) was added to the cells. During this step, AR-inverse agonist or BIM-46187 was also added at desired concentrations to the calcium dye preparation in case of experiments where cells were pre-treated with these inhibitors. The cells were maintained for one hour in the cell culture incubator. Following this, the 96-well plate containing cells loaded with calcium dye and a U-bottom 96-well plate containing ligands at 5x the desired final concentration in D-PBS (1.47 mM KH2PO4, 138 mM NaCl, 2.67 mM KCl, 8.1 mM Na2HPO4, pH 7.3) were allowed to equilibrate for 15 min on a FlexStation 3 instrument (Molecular Devices, Sunnyvale, CA) at 37°C. The plates were further equilibrated on the instrument for 5 min with the lids removed from the plates. The instrument was programmed in FLEX mode to add ligands (50 µl at 5x concentration) to the cells and to monitor the fluorescence before and after adding the ligands. In re-stimulation and antagonism assays the instrument is programmed to add 35 µl of first ligand followed by addition of the second ligand (35 µl) after 10 min. […] Therefore, when using 5x ligand stock the maximum AR-agonist concentration that could be tested was 10 µM.
# In the calcium assays, the maximum response and minimum response values in relative fluorescence units (RFU) were extracted by subtracting the corresponding baseline value wherein baseline is defined as the average fluorescence of all time points before addition of ligand.
# (§1) The kinetic parameter t1/2 (time taken to reach half of the maximum response) was determined using SoftMax Pro software supplied with the FlexStation 3 instrument (Molecular Devices, Sunnyvale, CA).
# For re-stimulation assays, the data is expressed as the percentage of maximum agonist stimulation to allow for ready comparison between individual experiments. […] For all the assays, the EC50 and IC50 values were estimated by fitting the data to a three parameter dose response using GraphPad Prism software (GraphPad, La Jolla, CA).
# MAS [2] = molecular target: T1, MAS; assay: SRF-RE luciferase reporter assay (Gα12-dependent), induced WT MAS stable cell line; type: cell-based; conditions: induced cells
# Method: The luciferase assay was performed using pGL4 luciferase reporter vectors and Dual-Glo Luciferase Assay System (Promega, Madison, WI). For this assay, the inducible MAS stable cells were initially plated in a 10 cm plate and left overnight in a cell culture incubator. The following day the cells were transfected with 5 µg of pGL4.34 plasmid containing serum response factor response element (SRF-RE)-firefly luciferase reporter gene and 1 µg of pGL4.73 plasmid containing renilla luciferase (as a transfection efficiency control). […] After 8 h of transfection and induction, the cells were seeded onto a 96-well clear bottom black cell culture plate (pre-coated with poly-L-lysine) at a density of 125,000 cells/well in 100 µl of minimal medium (with reduced serum of 0.5%). The plate was maintained in a cell culture incubator for 18–20 h. At this point 50 µl of media in the cells was replaced with 50 µl of serum free media containing ligands at 2x the desired concentration and incubated for an additional 6 h. Finally, the luciferase activity in the cells was measured according the protocol provided by the manufacturer. The luminescence measurements (RLU) in the cells were obtained on FlexStation 3 instrument.
# For re-stimulation assays, the data is expressed as the percentage of maximum agonist stimulation to allow for ready comparison between individual experiments. […] In the luciferase assay, the luminescence measurements (RLU) are presented as a ratio of firefly to renilla luciferase activity. For all the assays, the EC50 and IC50 values were estimated by fitting the data to a three parameter dose response using GraphPad Prism software (GraphPad, La Jolla, CA).
# MAS [3] = test system: MAS; set-up: method as in ref [2] (a number printed in a supplementary file, which may have a reference list of its own: not looked up in the article's list); conditions: Mouse MAS; ref [2]; cited from earlier work
# MAS [4] = test system: MAS; set-up: method as in ref [2] (a number printed in a supplementary file, which may have a reference list of its own: not looked up in the article's list); conditions: Mouse MAS; ref [2]; cited from earlier work; remark: listed apart in the source
# untagged WT MAS = molecular target: T2, untagged WT MAS; assay: Calcium assay, untagged WT MAS inducible HEK293 stable cell line; type: cell-based; conditions: up to 250 µM
# Method: The assay was performed using FLIPR Calcium 5 assay kit (Molecular Devices, Sunnyvale, CA). For calcium measurements, cells at a density of 125,000 cells/well in 100 µl medium were seeded onto a 96-well clear bottom black cell culture plate that was pre-coated with poly-L-lysine. In the calcium assays the cell density of 125,000 cells/well was consistently maintained to minimize variability between independent experiments. The cells were seeded in induction media to induce MAS expression or in complete media for negative controls. The plate was maintained in a cell culture incubator for 26–28 h. The cells were then serum starved for 2 h by replacing the medium with 100 µl of serum free DMEM. In the case of pre-treatment with pan-inhibitor of G protein signaling, BIM-46187, the cells were initially serum starved for 1 h by replacing the medium with 50 µl of serum free DMEM. After 1 h, 50 µl of BIM-46187 was added to the cells to a final concentration of 25 µM and treated for another 1 h. Following serum starvation, 100 µl of calcium sensitive dye along with 2x (2.5 mM final concentration) probenecid (Life Technologies, Grand Island, NY) was added to the cells. During this step, AR-inverse agonist or BIM-46187 was also added at desired concentrations to the calcium dye preparation in case of experiments where cells were pre-treated with these inhibitors. The cells were maintained for one hour in the cell culture incubator. Following this, the 96-well plate containing cells loaded with calcium dye and a U-bottom 96-well plate containing ligands at 5x the desired final concentration in D-PBS (1.47 mM KH2PO4, 138 mM NaCl, 2.67 mM KCl, 8.1 mM Na2HPO4, pH 7.3) were allowed to equilibrate for 15 min on a FlexStation 3 instrument (Molecular Devices, Sunnyvale, CA) at 37°C. The plates were further equilibrated on the instrument for 5 min with the lids removed from the plates. The instrument was programmed in FLEX mode to add ligands (50 µl at 5x concentration) to the cells and to monitor the fluorescence before and after adding the ligands. […]
# MAS [5] = molecular target: T1, MAS; assay: HTRF IP1 assay, induced myc-tagged WT MAS HEK293 stable cell line; type: cell-based; conditions: WT MAS, induced cells
# Method: IP1 levels in the cells were measured using the IP-One Tb kit (Cisbio US, Bedford, MA). For the assay, cells were seeded onto a 384-well low volume white cell culture plate at a density of 25,000 cells/well in 20 µl of induction or complete medium. In the IP1 assays the cell density of 25,000 cells/well was consistently maintained to minimize variability between independent experiments. The cells were maintained in a cell culture incubator for 26–28 h. The cells were then serum starved for 2 h by replacing the medium with 7 µl of serum free DMEM/F-12. During this step, 7 µl of serum free DMEM/F-12 was also added to the wells to which IP1 standards would be subsequently added. […] The cells were then placed in the cell culture incubator for 4 h. Later, 3 µl each of d2-labeled IP1 and anti-IP1 cryptate Tb conjugated antibody diluted in lysis buffer was added sequentially to all the wells and the plate was incubated overnight in the dark at room temperature. Time-resolved ratiometric fluorescence emission measurements at 665 nm and 620 nm were taken after excitation at 343 nm on FlexStation 3 instrument.
# For the IP1 assay, a standard curve was generated using the 4-Parameter logistic equation fit of the HTRF readings of IP1 standards using the SoftMax Pro software. The IP1 concentrations in the experiments were extrapolated based on the standard curve parameters. […] For all the assays, the EC50 and IC50 values were estimated by fitting the data to a three parameter dose response using GraphPad Prism software (GraphPad, La Jolla, CA).
# MAS [6] = test system: MAS; set-up: method as in ref [12] (a number printed in a supplementary file, which may have a reference list of its own: not looked up in the article's list); conditions: Rat MAS; ref [12]; read-out: EC50 (Calcium assay); cited from earlier work
# MAS [7] = conditions: Mouse MAS, cited from earlier work
# MAS [8] = molecular target: T1, MAS; set-up: method as in ref [10,11] (a number printed in a supplementary file, which may have a reference list of its own: not looked up in the article's list); conditions: ref [10,11], read-out: EC50 (Calcium assay); cited from earlier work
# MAS [9] = test system: MAS; set-up: method as in ref [8] (a number printed in a supplementary file, which may have a reference list of its own: not looked up in the article's list); conditions: Bovine MAS; ref [8]; cited from earlier work
# MAS I191A mutant = molecular target: T3, MAS I191A mutant; assay: Calcium assay, I191A MAS mutant stable cell line; type: cell-based
# Method: (§2) The assay was performed using FLIPR Calcium 5 assay kit (Molecular Devices, Sunnyvale, CA). For calcium measurements, cells at a density of 125,000 cells/well in 100 µl medium were seeded onto a 96-well clear bottom black cell culture plate that was pre-coated with poly-L-lysine. In the calcium assays the cell density of 125,000 cells/well was consistently maintained to minimize variability between independent experiments. The cells were seeded in induction media to induce MAS expression or in complete media for negative controls. The plate was maintained in a cell culture incubator for 26–28 h. The cells were then serum starved for 2 h by replacing the medium with 100 µl of serum free DMEM. In the case of pre-treatment with pan-inhibitor of G protein signaling, BIM-46187, the cells were initially serum starved for 1 h by replacing the medium with 50 µl of serum free DMEM. After 1 h, 50 µl of BIM-46187 was added to the cells to a final concentration of 25 µM and treated for another 1 h. Following serum starvation, 100 µl of calcium sensitive dye along with 2x (2.5 mM final concentration) probenecid (Life Technologies, Grand Island, NY) was added to the cells. During this step, AR-inverse agonist or BIM-46187 was also added at desired concentrations to the calcium dye preparation in case of experiments where cells were pre-treated with these inhibitors. The cells were maintained for one hour in the cell culture incubator. […] The instrument was programmed in FLEX mode to add ligands (50 µl at 5x concentration) to the cells and to monitor the fluorescence before and after adding the ligands. […]
# as §1
# (§3) For re-stimulation assays, the data is expressed as the percentage of maximum agonist stimulation to allow for ready comparison between individual experiments. […]
# MAS F112A mutant = molecular target: T4, MAS F112A mutant; assay: Calcium assay, F112A MAS mutant stable cell line; type: cell-based
# Method: as §2, §1, §3
# MAS M244A mutant = molecular target: T5, MAS M244A mutant; assay: Calcium assay, M244A MAS mutant stable cell line; type: cell-based
# Method: as §2, §1, §3
# MAS T270A mutant = molecular target: T6, MAS T270A mutant; assay: Calcium assay, T270A MAS mutant stable cell line; type: cell-based
# Method: as §2, §1, §3
# [10] = molecular target: T7, myc-tagged wild-type human MAS receptor (human)
# [11] = molecular target: T7, myc-tagged wild-type human MAS receptor (human); remark: listed apart in the source
# [12] = WT MAS, t1/2 at 1000 µM (1 mM) ligand concentration
# [13] = WT MAS, t1/2 at 100 µM ligand concentration
molecule,measurement,setting,value
VYIHP [Ang(3–7)] [listing 1 of 2 here],"t1/2, Calcium assay",MAS [1]; [12],15.0 ± 0.5 s
CC[C@H](C)[C@H](NC(=O)[C@H](Cc1ccc(O)cc1)NC(=O)[C@@H](NC(=O)[C@H](CCCNC(=N)N)NC(=O)[C@@H](N)CC(=O)O)C(C)C)C(=O)N[C@@H](Cc1c[nH]cn1)C(=O)N1CCC[C@H]1C(N)=O [Ang(1–7)-amide],"EC50, Calcium assay",MAS [1]; WT MAS,cbd
same,"t1/2, Calcium assay",MAS [1]; [12],11.4 ± 1.0 s
"CC[C@H](C)[C@H](NC(=O)[C@H](Cc1ccc(O)cc1)NC(=O)[C@@H](NC(=O)[C@H](CCCNC(=N)N)NC(=O)[C@@H](N)CC(=O)O)C(C)C)C(=O)N[C@@H](Cc1c[nH]cn1)C(=O)N1CCC[C@H]1C(=O)O [Ang(1–7), angiotensin (1–7)]","EC50, Luciferase assay",MAS [2],cbd
same,Type (Arachidonic acid release assay),MAS [3],Endogenous agonist
same,Effect in aortic rings,MAS [4],Vasodilator effect in aortic rings
same,"EC50, Calcium assay",MAS [1]; WT MAS,cbd
same,"t1/2, Calcium assay",MAS [1]; [12],11.8 ± 0.6 s
same,Calcium response,untagged WT MAS,no response
same,"EC50, IP1 assay",MAS [5],cbd
CC[C@H](C)[C@H](NC(=O)[C@H](Cc1ccc(O)cc1)NC(=O)[C@@H](NC(=O)[C@H](CCCN=C(N)N)NC(=O)CNC)C(C)C)C(=O)N[C@@H](Cc1c[nH]cn1)C(=O)N1CCC[C@H]1C(N)=O [[Sar^1]-Ang(1–7)-amide],EC50,MAS [1]; WT MAS,193 ± 59 µM
same,"t1/2, Calcium assay",MAS [1]; [13],18.2 ± 1.2 s
VYIHP [Ang(3–7)] [listing 2 of 2 here],"EC50, Calcium assay",MAS [1]; WT MAS,cbd
N[C@@H](CSSC[C@H](N)C(=O)N1CCn2cc(-c3ccccc3)nc2[C@@H]1CC1CCCCC1)C(=O)N1CCn2cc(-c3ccccc3)nc2[C@@H]1CC1CCCCC1 [BIM-46187],Effect of pre-treatment on AR-agonist calcium signal,MAS [1]; 25 µM pre-treatment,complete loss of signal
"MBP7: peptide agonist, sequence KAQLRRLS",EC50,MAS [6],36.4 µM
CC(C)C[C@H](NC(=O)[C@H](N)Cc1ccc(O)cc1)C(=O)N(C)[C@@H](Cc1ccccc1)C(=O)N[C@@H](CCC(N)=O)C(=O)N1CCC[C@H]1C(=O)N[C@@H](CCC(N)=O)C(=O)N[C@@H](CCCN=C(N)N)C(=O)N[C@@H](Cc1ccccc1)C(N)=O [[^DY^1] [^NMeF^3]-NPFF] (HELM PEPTIDE1{[dY].L.[meF].Q.P.Q.R.F.[am]}$$$$V2.0),EC50,MAS [1]; WT MAS,2.4 ± 0.3 µM
[^DPro^7]-Ang(1-7),Remarks: effect on Ang(1-7) response,MAS [7]; ref [6],Inhibits Ang(1-7) response
"A779: Ang(1–7) analog, sequence DRVYIH^DA (DRVYIH[dA])",Remarks: effect on Ang(1-7) response,"MAS [7]; ref [2,5]",Inhibits Ang(1-7) response
same,"EC50, Calcium assay",MAS [1]; WT MAS,cbd
same,"t1/2, Calcium assay",MAS [1]; [13],cbd ^#
YLFQPQRF-NH2 [[Y^1]-NPFF],EC50,MAS [1]; WT MAS,12.2 ± 2 µM
"P61 / CGEN-856: peptide agonist, sequence FLGYCIYLNRKRRGDPAFKRRLRD",EC50,MAS [8],0.57 µM
"P33 / CGEN-857: peptide agonist, sequence SMCHRWSRAVLFPAAHRP",EC50,MAS [8],1 µM
CCNC(=O)NS(=O)(=O)c1sc(CC(C)C)cc1-c1ccc(Cn2c(-c3ccccc3)nc(OC)c2C=O)cc1 [AVE 0991],Remarks: Ang(1-7)-like effects,MAS [9],Mimics Ang(1-7) effects
"CC(C)C[C@H](NC(=O)[C@@H](N)Cc1ccccc1)C(=O)N[C@@H](Cc1ccccc1)C(=O)N[C@@H](CCC(N)=O)C(=O)N1CCC[C@H]1C(=O)N[C@@H](CCC(N)=O)C(=O)N[C@@H](CCCN=C(N)N)C(=O)N[C@@H](Cc1ccccc1)C(N)=O [NPFF, Neuropeptide FF]","t1/2, Calcium assay",MAS I191A mutant,9.0 ± 0.4 s
same,"t1/2, Calcium assay",MAS F112A mutant,7.7±2.9^#∧ s
same,"t1/2, Calcium assay",MAS M244A mutant,cbd
same,"t1/2, Calcium assay",MAS T270A mutant,9.3±2.0^#∧ s
same,"t1/2 (time taken to reach half of the maximal calcium response), Calcium assay",MAS [1]; WT MAS,8.5 ± 0.3 s
NPFF-C (peptide),"EC50, calcium assay, induced WT MAS stable HEK293 cells",[10],3 µM
CC[C@H](C)[C@H](NC(=O)[C@H](Cc1ccc(O)cc1)NC(=O)[C@@H](N)C(C)C)C(=O)N[C@@H](Cc1c[nH]cn1)C(=O)N1CCC[C@H]1C(=O)N[C@@H](Cc1ccccc1)C(N)=O [AngIV-amide],EC50,MAS [1]; WT MAS,24.4 ± 1.5 µM
same,"t1/2, Calcium assay",MAS [1]; [13],13.7 ± 0.9 s
B1,"EC50, calcium assay, induced WT MAS stable HEK293 cells",[10],2.4 µM
B2,"EC50, calcium assay, induced WT MAS stable HEK293 cells",[11],193 µM
VYIHPF-NH2 [AngIV-amide],"EC50, calcium assay, induced WT MAS stable HEK293 cells (response incompletely inhibited by AR-inverse agonist; non-specific response in un-induced cells at 1 mM)",[11],24.4 µM
RVYIHPF [AngIII],"EC50, calcium assay, induced WT MAS stable HEK293 cells (response incompletely inhibited by AR-inverse agonist; non-specific response in un-induced cells at 1 mM)",[11],30.7 µM
YLFQPQRF-NH2 [[Y^1]-NPFF],"EC50, calcium assay, induced WT MAS stable HEK293 cells",[10],12.2 µM
